Experimental data reported in patent US7453006B2, “Inositol derivatives for increasing chloride secretion and inhibiting inflammation” (Inologic, Inc., priority 2000, dated 2008).
Where “and” joins values, the source holds several entries; their conditions need not be identical. Equal values may be shown once. Entries after “also recorded” stand apart in the source; their conditions may differ.

Legend:
[1] = tested on: CF Human Nasal Epithelial (CFHNE) cells; test: Cystic Fibrosis Human Nasal Epithelial Cell Assay (Isc, Ussing chambers); type: cell-based
Protocol: CF Human Nasal Epithelial (CFHNE) Cell Isolation and Proliferation
Nasal Polyps were surgically obtained from a CF patient at Children's Hospital (Seattle, Wash.), transported on ice in a sterile container containing a 1:1 mixture of Dulbecco's modification of minimum essential medium Eagle and Ham's F-12 nutrient medium (DMEM/F-12) (Irvine Scientific, Santa Ana, Calif.) supplemented with 100 U/mL penicillin, 0.1 mg/mL streptomycin, 10 mM HEPES, and 2 mM L-glutamine. The tissue samples were aseptically removed from the transport medium and washed (repeated 5 times) by suspending in 40 mL of Joklik's modification of minimum essential medium Eagle (JMEM) at 4° C., and centrifuging at 500 rpm. The supernatant was aspirated and discarded. The tissue was then transferred to JMEM containing 200 U/mL penicillin, 0.2 mg/mL streptomycin, 0.1 mg/mL gentamycin sulfate (Clonetics, San Diego, Calif.), and 0.1 μg/mL amphotericin-B (Clonetics), and 0.1% Protease, washed an additional two times, suspended in […] in a 10 cm tissue culture dish, and incubated at 4° C. for 24 hours. The tissue samples were then gently triturated, the connective tissue aseptically removed, and the remaining cell suspension centrifuged at 1000 rpm. The supernatant was aspirated and the pellet was resuspended in 10 mL proliferation media, consisting of Keratinocyte-Serum Free Medium (KSFM) (Gibco-BRL, Grand Island, N.Y.) containing 5 ng/ml EGF (Gibco), 50 μg/mL BPE (Gibco), 5 μg/mL insulin, 5 μg/mL transferrin, 5 μg/ml sodium selenite, 10 nM 3,3′,5-triiodo-L-thyronine, 200 nM hydrocortisone, 100 U/mL penicillin, 0.1 mg/mL streptomycin, and 2 mM L-glutamine. The cell suspension was transferred to 2.10 cm tissue culture dishes coated with 3 μg/cm^2 rat-tail collagen (Type I) (Becton-Dickinson, Bedford, Mass.), incubated at 37° C. in an humidified atmosphere of 5% CO2 and 95% air. The cells were allowed to grow for 6 days (˜70% confluence) with the media being replaced with fresh media every other day. The cells were then trypsinized using 0.025% trypsin-EDTA for 5 min. The cell suspension was collected, the trypsin deactivated with 10% Fetal Bovine Serum, and centrifuged at 1000 rpm for 5 min. The cells were then counted using an hemocytometer with a yield of 3×10^6 cells per dish. The supernatant was aspirated and the cells were resuspended in KSFM and plated at a density of 10^4 cells/cm^2.
CFHNE Cell Ussing Chamber Preparation
The CFHNE cells were prepared for Ussing Chamber studies using Snapwell permeable supports (0.4 μm pore size) (Corning Costar, Cambridge, Mass.) coated with 3 μg/cm^2 rat-tail collagen (type 1). Cells were plated at 9×10^3 cells/cm^2 in KSFM. After 2 days, an air-liquid interface (ALI) was initiated in DMEM/F-12 containing: 2% Fetal Clone III (Hyclone, Logan, Utah), 2.5 μg/mL insulin, 2.5 μg/mL transferrin, 2.5 μg/mL sodium selenite, 20 nM hydrocortisone, 1.5 μM epinephrine, 50 μg/mL BPE, 1 nM 3,3′,5-triiodo-L-thyronine, 3.3 nM All-trans retinoic acid, 250 nM ethanolamine, 250 nM O-phosporylethanolamine, 100 U/mL penicillin, 0.1 mg/ml streptomycin, and 2 mM L-glutamine. The CFHNE monolayers reached maximal resistance (˜200 Ω/cm^2) 5-7 days after initiation of ALI. All media/reagents, unless otherwise specified, were supplied by Sigma Chemical Co., St. Louis, Mo.

[2] = tested on: T84 cells; test: Colonic Epithelial Cell Assay (Isc across T84 monolayers, Ussing chambers); type: cell-based, human; conditions: for increase in short circuit current (Isc): T84 monolayers in Ussing chambers, differing concentrations (text: colonic and airway epithelial cells); for Isc response to carbachol / inhibition of the Isc response to carbachol / Isc response to thapsigargin following carbachol: 30 min preincubation
Protocol: Cl^− secretion in colonic epithelial cells was measured as short circuit current (Isc) across T84 monolayers grown to confluence on Snap-wells (Costar) and mounted in Ussing chambers equipped with voltage clamps (Physiologic Instruments, San Diego). Data was acquired and analyzed using AAcquire and Analyze@ software (Physiologic Instruments). T84 cells (passages 18-48) were maintained as described previously in McRoberts, J. A. et al., “Cyclic AMP and Ca^2+-activated K^+ transport pathway in the apical membrane of a human colonic epithelial cell line,” J. Biol. Chem. 260:14163-14172 (1985). After […] of incubation on Snap-wells, monolayers had formed tight junctions and were preincubated with […] Bt2D-myo-Ins(3,4,5,6)P4/AM for 30-min. prior to mounting. An extracellular concentration of 200 uM corresponds to an intracellular concentration of 4 uM (Vajanaphnich, et al., “Long-term uncoupling of chloride secretion from intracellular calcium levels by Ins(3,4,5,6)P4,” Nature 371:711-714 (1994)). […]

[3] = tested on: arachidonic acid-induced inflammation in mouse ears; test: arachidonic acid-induced inflammation in mouse ears; type: in vivo; conditions: for Ear Thickness: 20 nanomoles/ear topical 30 min before arachidonic acid, measured 60 min after arachidonic acid, control 56.5 ± 1.57
Protocol: Arachidonic Acid (Nu-Chek, Elysian, Minn. 56028); Indomethacin (stock=12.5 mg/mL acetone). Prednisolone (Sigma Chem, P6004) 20 mM dissolved in acetone; Animals: Female Balb/c mice (B&K laboratories) and Swiss-Webster hybrid (B& K Laboratory, Kent, Wash.)
The right ear of each mouse was used for the test compound. Unless otherwise indicated each compound was adjusted to 20 mM by dilution into DMSO or DMSO/5% Pluronic F127 as indicated and 1 or 2 microliters were applied to the test ear. Thirty minutes after each compound was applied, 4 mg arachidonic acid was applied (4 μL/ear; 2 μL/side) to both ears of each mouse. Measurements of edema were taken 60 min after the application of arachidonic acid with microcalipers (Oditest, Scientific Supply and Equipment) unless otherwise indicated. The results are shown in FIG. 15 as millimeters×10^−2 measured at the thickest point of each ear. Control measurements were performed on ears that were only treated with arachidonic acid.
Response to prednisolone (20 μL of 20 mM/ear; 10 μl/side) added 3 hrs prior 20′ to arachidonic acid or indomethacin (5 μg/ear) added 30 min prior to test compounds was determined. The results are shown in Table A, where the anti-inflammatory/inflammatory effects of 20 nanomoles/ear of the indicated compounds were tested as described in Methods. Each plus represents a change from control (arachidonic acid alone) of 2.5 mm×10^−2. Effects were compared with those of Indomethacin (400 nmols/ear).
Acute inflammation: Membrane permeant inositol polyphosphate analogs were administered topically and tested for inhibition of inflammatory symptoms induced by arachidonic acid on the ear of Swiss Webster mice.

[4] = topical, ear of Swiss Webster mice

Compound: 2,3,5-tri-O-butyryl-myo-inositol 1,4,6-trisphosphate hexakis(proprionoxymethyl)ester [TMX]
- prolonged decrease in Isc after ATP (negative component of the ATP effect) ([1]; CFHNE monolayers exposed to TMX for 10 min, ATP 10^−4 M): attenuated; also recorded: reverse the negative component of the ATP effect on Isc
- increase in short circuit current (Isc) [2]: prolonged increase in Isc similar to cyclic AMP

Compound: 2,3,5-tri-O-butyryl-myo-inositol 1,4,6-trisphosphate hexakis-(acetoxymethyl) ester [TMX/AM]
- Ear Thickness [3]: 44.1 ± 2.3 mm × 10^−2

Compound: CCCC(=O)OC1C(OP(=O)(OCOC(C)=O)OCOC(C)=O)C(OP(=O)(OCOC(C)=O)OCOC(C)=O)C(OP(=O)(OCOC(C)=O)OCOC(C)=O)C(OP(=O)(OCOC(C)=O)OCOC(C)=O)C1(CCC)OP(=O)(OCOC(C)=O)OCOC(C)=O (racemic) [Compound D, rac-1-O-butyryl-2-C-propyl-myo-inositol 2,3,4,5,6-pentakisphosphate-dekakis(acetoxymethyl) ester]
- basal Isc ([2]; 200 μM, acute treatment, T84): small increase in basal Isc; also recorded: small acute effect increasing basal Isc
- subsequent carbachol-stimulated Isc ([2]; 200 μM, acute treatment, T84): little effect
- Ear Thickness [3]: 44.0 ± 1.4 mm × 10^−2 and 44.2 ± 6.5 mm × 10^−2

Compound: Nc1ncnc2c1ncn2[C@@H]1O[C@H](COP(=O)(O)OP(=O)(O)OP(=O)(O)O)[C@@H](O)[C@H]1O [ATP, adenosine triphosphate, reference compound]
- Isc after ATP ([1]; ATP 10^−4 M, monolayers pretreated with vehicle): transient increase in Isc followed by a prolonged decrease

Compound: N=C(N)NC(=O)c1nc(Cl)c(N)nc1N [Amiloride, amiloride, reference compound]
- decrease in Isc ([1]; amiloride 100 μM, apical compartment, in 19 of 23 monolayers): 1.01 μAmps/cm^2

Compound: COCCOCOC12CCCCOC1C(OP(=O)(OCOC(C)=O)OCOC(C)=O)C(OP(=O)(OCOC(C)=O)OCOC(C)=O)C(OP(=O)(OCOC(C)=O)OCOC(C)=O)C2OP(=O)(OCOC(C)=O)OCOC(C)=O (centres unmarked) [Compound C, (5aa,6a,7b,8a,9b,9aa)-6,7,8,9-tetrakis[[bis(acetoxymethoxy)-phosphoryl]oxy]-5a-[(2′-methoxy)ethoxy]methoxy-decahydro-benzo[b]oxepin]
- Isc response to carbachol ([2]; 200 μM, T84): reduces the magnitude
- inhibition of the Isc response to carbachol ([2]; 200 μM, T84): approximately 50%
- Isc response to carbachol ([2]; 400 μM, T84): reduces the magnitude
- Isc response to thapsigargin following carbachol ([2]; 400 μM, T84): partially restores the response of the monolayers to thapsigargin
- inhibition of the Isc response to carbachol ([2]; 400 μM, T84): approximately 50%
- Ear Thickness [3]: 50.0 ± 5.5 mm × 10^−2

Compound: CCCC(=O)OC12CCCOC1C(OP(=O)(OCOC(C)=O)OCOC(C)=O)C(OP(=O)(OCOC(C)=O)OCOC(C)=O)C(OP(=O)(OCOC(C)=O)OCOC(C)=O)C2OP(=O)(OCOC(C)=O)OCOC(C)=O (centres unmarked) [Compound G, (4aa, 5a,6b,7a,8b,8aa)-5,6,7,8-tetrakis[[bis(acetoxymethoxy)-phosphoryl]oxy]-4a-butyryloxy-octahydro-chromen]
- Isc response to carbachol ([2]; 200 μM, T84): did not affect
- Isc response to thapsigargin following carbachol ([2]; 200 μM, T84): reversed the inhibition of thapsigargin induced chloride secretion; also recorded: reverses the carbachol-mediated inhibition of thapsigargin-stimulated increase in Isc

Compound: CCCC(=O)OC1C(OC(=O)CCC)C(OP(=O)(OCOC(C)=O)OCOC(C)=O)C(OP(=O)(OCOC(C)=O)OCOC(C)=O)C(OP(=O)(OCOC(C)=O)OCOC(C)=O)C1OP(=O)(OCOC(C)=O)OCOC(C)=O [D-2,3-Di-O-butyryl-myo-inositol 1,4,5,6 tetrakisphosphate octakis(acetoxymethyl)ester, reference compound]
- dose with inhibitory effect comparable in intensity to that of indomethacin (250 μg/animal) [3, 4]: 20-30 μg/animal

Compound: CCCC(=O)OC1C(OC(=O)CCC)C(OP(=O)(OCOC(=O)CC)OCOC(=O)CC)C(OP(=O)(OCOC(=O)CC)OCOC(=O)CC)C(OP(=O)(OCOC(=O)CC)OCOC(=O)CC)C1OP(=O)(OCOC(=O)CC)OCOC(=O)CC [D-2,3-Di-O-butyryl-myo-inositol 1,4,5,6 tetrakisphosphate octakis(propionoxymethyl)ester]
- topical anti-inflammatory effects, values [3, 4]: 0.25-1.5 μg/animal

Compound: CC(=O)OCOP(=O)(OCOC(C)=O)O[C@@H]1[C@@H](OP(=O)(OCOC(C)=O)OCOC(C)=O)[C@@H]2O[C@H]3CCC[C@@]2(O3)[C@H](OP(=O)(OCOC(C)=O)OCOC(C)=O)[C@H]1OP(=O)(OCOC(C)=O)OCOC(C)=O [Tri-cyclo, (1S, 2R, 3S, 4R, 5S, 6S, 8R)-2,3,4,5-tetrakis[[bis-(acetoxymethoxy)phosphoryl]oxy]-7,12-dioxa-tricyclo-[6.3.1.0(1,6)]-dodecane]
- Ear Thickness [3]: 49.8 ± 2.5 mm × 10^−2

Compound: CCCC(=O)O[C@@H]1[C@H](OC(=O)CCC)[C@H](OP(=O)(OCOC(=O)CC)OCOC(=O)CC)[C@@H](OP(=O)(OCOC(=O)CC)OCOC(=O)CC)[C@H](OC(=O)CCC)[C@H]1OP(=O)(OCOC(=O)CC)OCOC(=O)CC [ent-TMX, 1,2,5-tri-O-butyryl-myo-inositol 3,4,6-trisphosphate hexakis-(proprionoxymethyl) ester]
- increase in short circuit current (Isc) [2]: inactive
